Test results published in EP4470536A1, “COMPOUND FOR USE IN TREATING FIBRODYSPLASIA OSSIFICANS PROGRESSIVA (FOP)” (Queen's University At Kingston, priority 2023, dated 2024).

Experiments:
CYP26A1 = target: T1, CYP26A1 (Homo sapiens, UniProt O43174); test: HeLa cell-based inhibitor assay (HeLa-CYP26A1), inhibition of all trans-RA metabolism; settings: CYP26A1 cells, highest concentration tested (10 µM), Figure 2, read-out: percentage inhibition
T1 construct: expressed in transfected cells; host or cells: HeLa (stably transfected, hygromycin selection)
T1 sequence (O43174 1-497): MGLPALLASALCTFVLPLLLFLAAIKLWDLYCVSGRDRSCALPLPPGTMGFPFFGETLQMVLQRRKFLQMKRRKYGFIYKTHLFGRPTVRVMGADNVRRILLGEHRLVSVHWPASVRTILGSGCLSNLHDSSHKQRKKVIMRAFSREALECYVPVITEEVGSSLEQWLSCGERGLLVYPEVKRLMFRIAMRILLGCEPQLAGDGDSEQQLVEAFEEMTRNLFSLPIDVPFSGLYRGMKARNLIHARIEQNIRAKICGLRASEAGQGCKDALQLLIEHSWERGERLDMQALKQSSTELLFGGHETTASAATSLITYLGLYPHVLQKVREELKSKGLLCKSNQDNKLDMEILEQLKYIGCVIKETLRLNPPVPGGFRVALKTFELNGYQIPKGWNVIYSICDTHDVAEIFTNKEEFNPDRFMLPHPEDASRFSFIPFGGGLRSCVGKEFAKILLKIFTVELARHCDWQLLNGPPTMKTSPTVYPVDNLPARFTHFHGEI
Experimental: CYP26A1 or CYP26B1 cDNA stably transfected HeLa cells were maintained in Minimum Essential Medium (MEM) containing 10% fetal bovine serum (FBS), 1X antibiotic/antimycotic cocktail, and […] hygromycin. Exponentially growing cells were harvested by incubation in trypsin. Cells were then collected and re-plated in 48-well culture plates at 1.5×10^5 (CYP26A1) or 1.5×10^4 (CYP26B1) cells in 0.2 mL of culture medium containing 0.04µCi [^3H]-RA (retinoic acid) in the presence or absence of increasing concentrations of a test compound. The test compound was diluted in dimethyl sulfoxide (DMSO) and then added in duplicate to wells to 0.01 nM, 0.1 nM, 1 nM, 10 nM, 100 nM, 1 µM, and 10 µM final concentrations. Cells were incubated for 3 hours at 37 °C. Retinoids were then extracted using the procedure of Bligh, et al., (1959), Canadian Journal of Biochemistry 37, 911-917, which was modified by using dichloromethane instead of chloroform. Each sample's water-soluble radioactivity level was quantified using a β-scintillation counter (using Ecolume scintillation fluid, available from MP Biomedicals of Solon, OH, USA). IC50 values represented the concentration of inhibitor required to inhibit all trans-RA metabolism by 50%, and were derived from log transformed data.

[1] = Mapping a therapeutic window (ED50 versus MTD); format: in vivo
Excerpt: For both palovarotene and compound 1 efficacy and toxicity were correlated to the pharmacokinetic parameters AUC (area under the curve), Cmax (maximum concentration detected following compound administration), and duration above EC50/IC50.This illustrated that efficacy was best predicted by duration above the EC50/IC50 (effective concentration for 50% response (in the case of palovarotene), or for 50% inhibition (in the case of compound 1)), whereas toxicity was best predicted by Cmax. […] For palovarotene, efficacy data from Example 7 and toxicity data from Example 8 above were compiled with mined data from the following publications: • Lindborg et al (2018). "Cartilage-derived retinoic acid-sensitive protein (CD-RAP): A stage-specific biomarker of heterotopic endochondral ossification (HEO) in fibrodysplasia ossificans progressiva (FOP)." Bone 109: 153-157. • Chakkalakal, S. A., et al. (2016). "Palovarotene Inhibits Heterotopic Ossification and Maintains Limb Mobility and Growth in Mice With the Human ACVR1(R206H) Fibrodysplasia Ossificans Progressiva (FOP) Mutation." J Bone Miner Res 31(9): 1666-1675. • Inubushi, T., et al. (2018). "Palovarotene Inhibits Osteochondroma Formation in a Mouse Model of Multiple Hereditary Exostoses." J Bone Miner Res 33(4): 658-666. • Lees-Shepard, J. B., et al. (2018). […] "Potent inhibition of heterotopic ossification by nuclear retinoic acid receptor-gamma agonists." Nat Med 17(4): 454-460.

[2] = tested on: growth plates of juvenile FVB mice; test: Long bone growth and growth plate toxicity in juvenile mice; settings: for Mean femur length (cm) / Mean tibia length (cm): oral gavage, P14-P41, juvenile FVB mice; for Mean modified Crural index: ratio of tibia over femur length
Excerpt: A preclinical study was used to evaluate toxicity of various doses of compound 1 versus palovarotene on the growth plates of juvenile FVB mice following once daily (QD) or twice (BID) administration by oral gavage, over the juvenile development period, for 4 weeks (postnatal days 14-42 (P14-P42)). […] Resultant DICOM files were rendered in the RadiAnt viewer to obtain long bone measurements using the program's measuring tool (Figure 8A).

## CC(C)(C)c1cccc(-c2cc3cc(/C=C/C(=O)O)ccc3[nH]2)c1 [Compound 1, (E)-3-(2-(3-(tert-butyl)phenyl)-1H-indol-5-yl)acrylic acid]
CYP26A1
  inhibition at 10 µM: 33%
[1]; Mus musculus, BID, effective dose for 50% reduction in ectopic bone
  ED50: 4 mg/kg
[1]; both sexes, FVB, mouse, in vivo
  MTD at 4 weeks: 10 mg/kg
[2]; 3mg/kg BID
  Mean femur length (cm): 1.38 ± 0.03 cm
  Mean tibia length (cm): 1.69 ± 0.04 cm
  Mean modified Crural index: 1.23 ± 0.03
[2]; 6mg/kg BID
  Mean femur length (cm): 1.33 ± 0.11 cm
  Mean tibia length (cm): 1.53 ± 0.05 cm
  Mean modified Crural index: 1.15 ± 0.05
[2]; 10mg/kg BID
  Mean femur length (cm): 1.34 ± 0.06 cm
  Mean tibia length (cm): 1.70 ± 0.04 cm
  Mean modified Crural index: 1.27 ± 0.06
[2]; 18mg/kg QD
  Mean femur length (cm): 1.10 ± 0.09 cm
  Mean tibia length (cm): 1.54 ± 0.07 cm
  Mean modified Crural index: 1.40 ± 0.06
[2]; at doses at least equally efficacious as palovarotene, Figures 8A, 8B, 9
  disturbances to the growth of long bones and microarchitecture of the growth plates: not observed
